According to article PMC5357725, “Global update on the susceptibility of human influenza viruses to neuraminidase inhibitors, 2014–2015” (Antiviral Research, 2016):

Columns and labels:
[1] = system: A(H1N1)pdm09 neuraminidase (NA); assay type: biochemical, influenza A(H1N1)pdm09 virus
[2] = target: B/Victoria-lineage neuraminidase (NA); assay type: biochemical, influenza B/Victoria-lineage virus

SMILES	inhibition class (NI, RI, HRI) [1]	IC50 values fold higher than the median [2]
[H]/N=C(\N)N[C@H]1C=C(C(=O)O)O[C@@H]([C@H](OC)[C@H](O)CO)[C@@H]1NC(C)=O [Laninamivir, laninamivir]	NI (key: normal inhibition (NI) (A viruses <10-fold; reduced inhibition (RI) (A viruses 10- to 100-fold; highly reduced inhibition (HRI) (A viruses >100-fold)	
CCC(CC)[C@H](NC(C)=O)[C@@H]1[C@H](O)[C@@H](C(=O)O)C[C@H]1N=C(N)N [Peramivir, peramivir]		8- to 14 fold
